Laboratory results from patent US20050238733A1, “Topical anesthesia of the urinary bladder” (priority 2000, published 2005).

Experiments:
mast cells = settings: low concentrations, opposite effect to inhibition; cited from earlier work
[1] = not given; remark: listed apart in the source
[2] = pKa and base-form fraction of local anesthetics in aqueous solution; type: physicochemical
From the text: The pKa is the pH at which 50% of the drug in an aqueous solution will be in the base form and 50% in the ion or charged form. As the pH of the solution falls, more of the drug converts into the ion form. Since the pH scale is a logarithmic scale, these changes are quite marked over a small pH range.
The pKa is the pH at which 50% of the drug in solution will be in the base form and 50% in the salt form. As the pH rises above the pKa, more of the drug will dissociate and convert into the free base non-ionic form. […] Local anesthetics and their pharmacology are discussed in detail in Remington's Pharmaceutical Sciences, A. Osol, ed., Mack Pub. Co., Easton, Pa. (16th ed. 1980) and the Merck Index (11th ed., 1989).

## CCN(CC)CC(=O)Nc1c(C)cccc1C [lidocaine]
Mast cells
  concentration at which lidocaine causes mast cells to release their histamine content: < 1 mmol
Alkalinized intravesical lidocaine, serum
  lidocaine levels compared with previously reported levels: ten times higher
Human volunteers, 4, 5 or 6 mg/kg 5% lidocaine intravesical with 8.4% sodium bicarbonate, pH 8.0, all subjects, within the first hour
  peak blood (serum) levels of lidocaine: 0.5-2 ug/cc
Human volunteers, at 30 minutes
  mean peak concentration of lidocaine in blood: 1.06 µg/mL
[1]; anesthetized rabbits, intra-vesical, pH 8.1
  peak blood levels of radiolabeled lidocaine: 800 CPM/0.1 ml of blood
[1]; live rabbit bladder, 45 minutes in situ, pH 8.45
  tissue levels of radioactive labeled lidocaine in bladder mucosa: declined rapidly to almost the same as at the pH levels below 8.0
[1]; live rabbit bladder, 45 minutes in situ, pH between 8.1 and 8.25
  peak tissue levels of radioactive labeled lidocaine in bladder mucosa: around 3,500,000 CPM/g of tissue
[2]; pH 5.8
  fraction of drug in the base form: 0.5%
[2]; pH 6.8
  fraction of drug in the base form: 5%
